In patent EP2600854B1, “PHENETHYL, PHENETHYLENE, PHENETHYNE AND INDANONE DERIVATES IN COSMETIC FORMULATIONS, ESPECIALLY FOR USE IN SKIN AGEING PROCESSES” (Merck Patent GmbH, priority 2010, dated 2012):
Converted amounts (≈) assume the structure as drawn. Read-outs that look alike come from different tables or passages of the source.

Tests used:
[1] = In-situ generation of 4a from 1a under sun-simulated radiation (Suntester), HPLC analysis; assay type: physicochemical; details: 5mg 1a in 10 mL Ethanol
Experimental: 5mg der Substanz 1 a werden in 10 mL Ethanol gelöst. Mit der Lösung wird ein NMR-Röhrchen vollständig befüllt, verschlossen und für 4 Stunden im Suntester sonnensimulierter Strahlung ausgesetzt (Atlas CPS+ Suntester, 765 Wm^-2). Nach Bestrahlung wird die Lösung per HPLC untersucht. Im Dunkelexperiment ist die Substanz 4a abwesend, während im Belichtungexperiment Substanz 4a zu 2% bei der Detektionswellenlänge von 272nm nachgewiesen wird.

[2] = Solubility comparison in the cosmetic oil isopropyl myristate; assay type: physicochemical; details: for solubility: isopropyl myristate, organic solvent or mixture, Isopropylmyristat, read-out: Löslichkeiten
Experimental: Im Parallelversuch werden 20mg der Substanz 4a mit zunächst 800µL Isopropylmyristat versetzt. […] Daraus errechnen sich Löslichkeiten für 1 a von mindestens 2,5% bzw. für 4a von maximal 1,0% bezogen auf das eingesetzte Volumen Öl. Im anschließenden Verifizierungsexperiment bei Raumtemperatur von 23°C ergeben sich Löslichkeiten von 2,4% für 1 a sowie 0,4% für 4a.

[3] = 30°C, bezogen auf das eingesetzte Volumen Öl, calculated from 20mg in 800µL (1a) or 800µL + 1200µL (4a)
[4] = Verifizierungsexperiment bei Raumtemperatur von 23°C

Substanz 4a nachgewiesen (HPLC) im Belichtungexperiment ([1]; 4 Stunden sonnensimulierte Strahlung (Atlas CPS+ Suntester, 765 Wm^-2), Detektionswellenlänge 272nm)	Substanz 4a (HPLC) im Dunkelexperiment ([1]; no irradiation)	Dissolution of 20mg in 800µL Isopropylmyristat ([2]; 20mg, 30°C)	solubility [2, 3]	solubility [2, 4]	Compound	Dissolution of 20mg after addition of further 1200µL Isopropylmyristat ([2]; 20mg, 800µL + 1200µL Isopropylmyristat)
2%	abwesend	vollständig gelöst	≥ 25 mg/mL	24 mg/mL (≈ 81.5 mM)	COc1ccc(C(=O)/C=C/c2ccc(C(C)(C)C)cc2)cc1 [1a, E-3-(4-tert.-Butyl-phenyl)-1-(4-methoxy-phenyl)-propenon]	
		keine vollständige Löslichkeit	≤ 10 mg/mL	4 mg/mL (≈ 13.6 mM)	COc1ccc2c(c1)C(c1ccc(C(C)(C)C)cc1)CC2=O (stereo not drawn) [4a, 3-(4-tert.-Butyl-phenyl)-5-methoxy-indan-1-on]	deutlicher Bodensatz in der trüben Dispersion
